From patent publication US20070208052A1, “Aryloxy and arylalkyleneoxy substituted thiazoloquinolines and thiazolonaphthyridines” (priority 2004, published 2007) come the findings set out here.

One may read the melting point as the temperature of the solid-liquid transition.

`CCCc1nc2c(N)nc3cc(OCc4ccccc4)ccc3c2s1` [Example 1, 7-Benzyloxy-2-propylthiazolo[4,5-c]quinolin-4-amine] showed a melting point of 175 to 178 °C. To `CCCc1nc2c(N)nc3cc(OCc4ccc(F)cc4)ccc3c2s1` [Example 2, 7-(4-Fluorobenzyloxy)-2-propylthiazolo[4,5-c]quinolin-4-amine] belongs 189 to 192 °C; to `CCCc1nc2c(N)nc3cc(OCCc4ccc(F)cc4)ccc3c2s1` [Example 3, 7-[2-(4-Fluorophenyl)ethoxy]-2-propylthiazolo[4,5-c]quinolin-4-amine], 145 to 148 °C. In turn, `CCCc1nc2c(N)nc3cc(OCCOCc4ccccc4)ccc3c2s1` [Example 4, 7-[2-(Benzyloxy)ethoxy]-2-propylthiazolo[4,5-c]quinolin-4-amine] displayed a melting point of 142 to 145 °C. To `CCCc1nc2c(N)nc3cc(OCc4ccoc4)ccc3c2s1` [Example 5, 7-(Furan-3-ylmethyloxy)-2-propylthiazolo[4,5-c]quinolin-4-amine] belongs 170 to 171 °C; to `CCc1nc2c(N)nc3cc(OCc4ccccc4)ccc3c2s1` [Example 29, 7-Benzyloxy-2-ethylthiazolo[4,5-c]quinolin-4-amine], 208 to 209 °C; to `CCc1nc2c(N)nc3cc(OCCCc4cccnc4)ccc3c2s1` [Example 30, 2-Ethyl-7-[3-(pyridin-3-yl)propoxy]thiazolo[4,5-c]quinolin-4-amine], 172 to 173 °C. To `CCCc1nc2c(N)nc3cc(OCc4cscn4)ccc3c2s1` [Example 31, 2-Propyl-7-[(thiazol-4-yl)methoxy]thiazolo[4,5-c]quinolin-4-amine] belongs 218 to 220 °C; to `CCCc1nc2c(N)nc3cc(OCc4cccnc4)ccc3c2s1` [Example 32, 2-Propyl-7-[(pyridin-3-yl)methoxy]thiazolo[4,5-c]quinolin-4-amine], 167 to 169 °C; to `CCCc1nc2c(N)nc3cc(OCCn4cccc4)ccc3c2s1` [Example 33, 2-Propyl-7-[2-(pyrrol-1-yl)ethoxy]thiazolo[4,5-c]quinolin-4-amine], 158 to 160 °C. To `CCCc1nc2c(N)nc3cc(OCCCn4cccc4)ccc3c2s1` [Example 34, 2-Propyl-7-[3-(pyrrol-1-yl)propoxy]thiazolo[4,5-c]quinolin-4-amine] belongs 152 to 154 °C; to `CCCc1nc2c(N)nc3cc(OCc4c(C)noc4C)ccc3c2s1` [Example 35, 7-[(3,5-Dimethylisoxazol-4-yl)methoxy]-2-propylthiazolo[4,5-c]quinolin-4-amine], 178 to 180 °C. The compound `CCc1nc2c(N)nc3cc(OCc4ccc(C(F)(F)F)o4)ccc3c2s1` [Example 36, 2-Ethyl-7-{[5-(trifluoromethyl)furan-2-yl]methoxy} thiazolo[4,5-c]quinolin-4-amine] gave a melting point of 152 to 154 °C. To `CCc1nc2c(N)nc3cc(OCc4ccc(S(=O)(=O)NCCc5cc6ccccc6[nH]5)cc4)ccc3c2s1` [Example 37, 4-{[(4-Amino-2-ethylthiazolo[4,5-c]quinolin-7-yl)oxy]methyl}-N-[2-(1H-indol-2-yl)ethyl]benzenesulfonamide] belongs 100 to 101 °C; to `CCc1nc2c(N)nc3cc(OCc4cccc(Cl)n4)ccc3c2s1` [Example 38, 7-[(6-Chloropyridin-2-yl)methoxy]-2-ethylthiazolo[4,5-c]quinolin-4-amine], 229 to 230 °C; to `CCc1nc2c(N)nc3cc(OCCc4c(C)n[nH]c4C)ccc3c2s1` [Example 39, 7-[2-(3,5-Dimethyl-1H-pyrazol-4-yl)ethoxy]-2-ethylthiazolo[4,5-c]quinolin-4-amine], 195 to 197 °C. To `CCc1nc2c(N)nc3cc(OCCCn4cc(CO)nn4)ccc3c2s1` [Example 40, (1-{[3-(4-Amino-2-ethylthiazolo[4,5-c]quinolin-7-yl)oxy]propyl}-1H-[1,2,3]triazol-4-yl)methanol] belongs 194 to 197 °C; to `CCc1nc2c(N)nc3cc(OCc4nc5ccccc5s4)ccc3c2s1` [Example 41, 7-[(1,3-Benzothiazol-2-yl)methoxy]-2-ethylthiazolo[4,5-c]quinolin-4-amine], 211 to 212 °C. In turn, `CCc1nc2c(N)nc3cc(OCc4ccc(C(=O)OC)o4)ccc3c2s1` [Example 42, Methyl 5-{[(4-amino-2-ethylthiazolo[4,5-c]quinolin-7-yl)oxy]methyl}-2-furoate] had a melting point of 184 to 186 °C. On to `CCc1nc2c(N)nc3cc(OCc4cccc(CO)n4)ccc3c2s1` [Example 43], for which the melting point fell in the range of 186 to 187 °C. Compound `CCc1nc2c(N)nc3cc(Oc4ccc(C(=O)OC)cn4)ccc3c2s1` [Example 44, Methyl 6-[(4-amino-2-ethylthiazolo[4,5-c]quinolin-7-yl)oxy]nicotinate] registered a melting point of 213 to 214 °C. In the case of `CCc1nc2c(N)nc3cc(OCCc4c[nH]c5ccccc45)ccc3c2s1` [Example 45, 2-ethyl-7-[2-(1H-indol-3-yl)ethoxy]thiazolo[4,5-c]quinolin-4-amine] it was 218 to 220 °C.
